Source: publication PMC6747274, “Multifunctional Peptides from Spanish Dry-Cured Pork Ham: Endothelial Responses and Molecular Modeling Studies” (International Journal of Molecular Sciences, 2019)
Where no end group is shown, it is not given here.

Experiments:
EA.hy926 cells = assay: Annexin V / propidium iodide apoptosis and necrosis by FACS; format: cell-based, human; conditions: preincubation with 300 µM peptide, then 300 µM H2O2; three independent experiments, mean ± SD; NS vs H2O2 alone
Description: (§1) EA.hy926 were seeded in six-well plates at 0.25 × 10^6 cells/well in DMEM supplemented with 5% FBS. Cells were treated with 300 µM of each peptide for 16 h. Then, 100 ng/mL TNF-α or 300 µM H2O2 were added for an additional 6 h or 24 h, respectively.
ApoScreen Annexin V Apoptosis Kit-FITC (Southern Biotech, Birmingham, AL, USA) was used to detect the apoptosis rate. After the co-incubation of synthetic peptides and 300 µM H2O2, 0.4 × 10^6 cells were detached and washed in cold PBS, then resuspended in 100 µL Annexin V binding buffer and treated following the manufacturer’s protocol. Annexin V-fluorescein isothiocyanate (FITC) binding was assessed in FL1 channel simultaneously with propidium iodide (FL2 channel). This test discriminates among intact cells (FITC−/PI−), apoptotic cells (FITC+/PI−), and necrotic cells (FITC+/PI+). Assays were performed in triplicate (Table S1).

purified rabbit ACE = purified rabbit ACE in vitro; read-out: IC50, purified rabbit ACE (given as ACE inhibitory concentration); cited from earlier work
From the text: Numerous reports have identified stable peptides with high ACE-inhibitory activity from pork dry-cured ham after gastrointestinal digestion. Four of them were synthetized chemically (KPVAAP, KAAAATP, KPGRP, and AAATP) for the current experimental studies with human endothelial cells.

human ACE = human ACE (Homo sapiens, UniProt P12821); assay: Human ACE inhibition assay (lysate of ACE-transfected EA.hy926 cells, HHL substrate, HPLC)
Chain of human ACE (P12821 30-1306): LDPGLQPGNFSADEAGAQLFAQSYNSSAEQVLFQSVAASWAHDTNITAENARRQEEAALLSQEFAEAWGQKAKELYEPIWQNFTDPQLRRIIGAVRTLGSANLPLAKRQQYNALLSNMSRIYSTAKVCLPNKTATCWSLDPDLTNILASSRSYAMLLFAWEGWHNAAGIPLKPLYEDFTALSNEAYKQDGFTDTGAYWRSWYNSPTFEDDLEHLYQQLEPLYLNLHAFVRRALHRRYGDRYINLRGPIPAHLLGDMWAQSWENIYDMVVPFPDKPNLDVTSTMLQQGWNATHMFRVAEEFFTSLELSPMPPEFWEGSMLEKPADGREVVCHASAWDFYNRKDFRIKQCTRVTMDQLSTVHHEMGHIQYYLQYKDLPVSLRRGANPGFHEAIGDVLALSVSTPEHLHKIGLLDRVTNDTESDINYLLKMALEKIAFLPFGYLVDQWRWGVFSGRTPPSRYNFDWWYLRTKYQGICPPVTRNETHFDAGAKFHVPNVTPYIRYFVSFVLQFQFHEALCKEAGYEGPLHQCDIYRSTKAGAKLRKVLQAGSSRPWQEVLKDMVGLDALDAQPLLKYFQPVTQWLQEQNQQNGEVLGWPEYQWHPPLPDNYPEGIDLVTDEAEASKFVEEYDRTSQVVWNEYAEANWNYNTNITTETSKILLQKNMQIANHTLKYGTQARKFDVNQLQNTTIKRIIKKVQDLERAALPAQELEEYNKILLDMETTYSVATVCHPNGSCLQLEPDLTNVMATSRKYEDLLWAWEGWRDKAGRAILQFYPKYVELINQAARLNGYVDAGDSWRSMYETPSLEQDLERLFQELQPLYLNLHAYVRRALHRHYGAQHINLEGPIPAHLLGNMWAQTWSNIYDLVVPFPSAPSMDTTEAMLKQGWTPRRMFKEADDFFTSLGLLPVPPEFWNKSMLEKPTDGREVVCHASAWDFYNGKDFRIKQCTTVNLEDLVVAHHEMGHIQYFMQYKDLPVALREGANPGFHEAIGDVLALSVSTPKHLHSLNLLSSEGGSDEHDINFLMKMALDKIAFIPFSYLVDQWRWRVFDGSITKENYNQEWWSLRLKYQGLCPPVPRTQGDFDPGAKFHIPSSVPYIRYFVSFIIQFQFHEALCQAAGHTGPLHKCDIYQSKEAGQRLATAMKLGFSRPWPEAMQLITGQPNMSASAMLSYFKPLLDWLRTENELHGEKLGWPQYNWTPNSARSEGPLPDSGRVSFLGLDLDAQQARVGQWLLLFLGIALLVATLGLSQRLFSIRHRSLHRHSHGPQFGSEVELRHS

[1] = tested on: ICAM-1 protein, EA.hy926 cells; assay: Intracellular ICAM-1 protein by western blot; format: cell-based, human; conditions: 300 µM peptide + 100 ng/mL TNF-α vs TNF-α stimulation; p < 0.01
Description: as §1
Supplementary Material and Methods
1.1. Human ACE Inhibitio n Assa y
Before transfection, the endothelial ACE expressio n level was very low and the p roduct of the enzymatic reaction undete ctable, and so a recombinant construct e ncodi ng the Myc-Tag fused to the ACE ge ne was used. T o overexpress the ACE enzyme, EA.hy926 cel ls were seeded in 24-well plates at 80,000 cells/well and transiently transfec ted with a human Ace ORF mammali an expression plasmid (Sinobiological, Beijing, China) using trans-it X2 reagent ( Myrus®, Madi son, […]
Wisconsin, USA). […] The effi ciency of […]
transfecti on was checked by immunofluorescence. Briefly, 48 h post-transfection, cells were fixed with 4% paraformaldehyd e in culture medi um for 15 min at room temperatur e, blocked with 1% bo vine seru m albumin (BSA) in phosph ate buffer for 30 min followed by 0.2% sapo nin for 30 min to permeabil ize the membr ane. […]
The mRNA level s of the target genes (ICAM-1, VCAM-1, IL-6, eNOS, SOD, catal ase, NADPH, BAX) were quantified by RT-PCR using Se nsiFAST SYBER Hi-ROX Kit (Bioline, Taunton, USA) with StepOnePlus Real-Time PCR Sy stem (Appl ied Bi osystems, Foster City, CA, USA) using speci fi c and vali dated pri mers (Si gma-Al drich Chemical Co., Saint Louis, MO, USA).
The tetr azolium assay (MTT) was used to estimate the cel l viability in the presence of synthetic pepti des (up to 600 µM) and 300 µM H2O2. […] The formazan crystals formed in the intact cel ls were dissol ved in 200 µL dimethyl sulfoxide (DMSO) for 30 min and the absorbance was measured in a micro plate reader at 570 nm and 620 nm of reference. Results wer e calculated as cel l viability (%) = average optic density (OD) of wells/ave rage OD of control wells. […]

IC50 (human ACE) [µM] | Substance | Apoptosis (AnV+/PI-), % cells (EA.hy926 cells) [%] | Necrosis (AnV+/PI+), % cells (EA.hy926 cells) [%] | IC50 (purified rabbit ACE) [µM] | ICAM-1 protein production (western blot) [1]
> 1000 | AAATP [BP4] | 12.16 ± 1.86 | 18.42 ± 6.34 | 100 | lower production of ICAM-1 protein
> 1000 | KAAAATP [BP2] | 14.47 ± 2.42 | 19.58 ± 0.18 | 25.6 | lower production of ICAM-1 protein
